Laboratory results taken from US20020035061A1, “COMPOSITIONS AND METHODS FOR TREATING INFECTIONS USING CATIONIC PEPTIDES ALONE OR IN COMBINATION WITH ANTIBIOTICS” (priority 1996, published 2002).
Where “and” joins values, the source holds several entries; their conditions need not be identical. Equal values may be shown once. Read-outs that look alike come from different tables or passages of the source.

Columns and labels:
Assay in all cases: microbe, parasite or virus in culture
Format in all cases: cell-based
[1] = test system: microorganisms with acquired resistance; conditions: for Peptide MIC Alone: Tobramycin section; for FIC: peptide + Tobramycin
bacterial isolates = conditions: for FIC: peptide + Tobramycin
[2] = test system: inherently resistant microorganisms; conditions: for MIC: Staphylococcus aureus, MRSA
[3] = Acinetobacter calcoaceticus, read-out: Piperacillin MIC Alone, A. calcoaceticus 2
[4] = Acinetobacter calcoaceticus, read-out: Piperacillin MIC Alone, A. calcoaceticus 7
[5] = Enterobacter cloacae, read-out: Piperacillin MIC Alone, E. cloacae 9
[6] = Enterobacter cloacae, read-out: Piperacillin MIC Alone, E. cloacae 10
[7] = Enterobacter cloacae, read-out: Piperacillin MIC Alone, E. cloacae 13
[8] = Enterobacter cloacae, read-out: Piperacillin MIC Alone, E. cloacae 16
[9] = Enterobacter cloacae, read-out: Piperacillin MIC Alone, E. cloacae 17
[10] = Escherichia coli, read-out: Piperacillin MIC Alone, E. coli 1
[11] = Haemophilus influenzae, read-out: Piperacillin MIC Alone, H. influenzae 1
[12] = Pseudomonas aeruginosa, read-out: Piperacillin MIC Alone, P. aeruginosa 7
[13] = Pseudomonas aeruginosa, read-out: Piperacillin MIC Alone, P. aeruginosa 15
[14] = Pseudomonas aeruginosa, read-out: Piperacillin MIC Alone, P. aeruginosa 22
[15] = Serratia marcescens, read-out: Piperacillin MIC Alone, S. marcescens SB1
[16] = Stenotrophomonas maltophilia, read-out: Piperacillin MIC Alone, S. maltophilia 2
[17] = Stenotrophomonas maltophilia, read-out: Piperacillin MIC Alone, S. maltophilia 3
[18] = Stenotrophomonas maltophilia, read-out: Piperacillin MIC Alone, S. maltophilia 11
[19] = Stenotrophomonas maltophilia, read-out: Piperacillin MIC Alone, S. maltophilia 14
[20] = Stenotrophomonas maltophilia, read-out: Piperacillin MIC Alone, S. maltophilia 34
[21] = Stenotrophomonas maltophilia, read-out: Piperacillin MIC Alone, S. maltophilia 35
[22] = S. maltophilia (strain code stands in r800, not shown)

CCN1CCN(C(=O)N[C@@H](C(=O)N[C@@H]2C(=O)N3[C@@H]2SC(C)(C)[C@@H]3C(=O)O)c2ccccc2)C(=O)C1=O [Piperacillin]
> 128 µg/mL: MIC [1, 5] | MIC [1, 6] | MIC [1, 10] | MIC ([1]; Pseudomonas aeruginosa, read-out: Piperacillin MIC Alone, P. aeruginosa 12) | MIC [1, 13] | MIC [1, 14] | MIC (bacterial isolates; Enterobacter cloacae, read-out: Piperacillin MIC Alone, E. cloacae 6) | MIC (bacterial isolates; [5]) | MIC (bacterial isolates; [6]) | MIC (bacterial isolates; [10]) | MIC (bacterial isolates; [12]) | MIC (bacterial isolates; [13]) | MIC (bacterial isolates; [14]) | MIC (bacterial isolates; Staphylococcus aureus, MRSA, read-out: Piperacillin MIC Alone, S. aureus 11 MRSA) | MIC (bacterial isolates; Staphylococcus aureus, MRSA, read-out: Piperacillin MIC Alone, S. aureus 18 MRSA) | MIC (bacterial isolates; Staphylococcus aureus, read-out: Piperacillin MIC Alone, S. aureus SB3MRSA) | MIC (bacterial isolates; Stenotrophomonas maltophilia, read-out: Piperacillin MIC Alone, S. maltophilia 5) | MIC (bacterial isolates; Stenotrophomonas maltophilia, read-out: Piperacillin MIC Alone, S. maltophilia 6) | MIC (bacterial isolates; Stenotrophomonas maltophilia, read-out: Piperacillin MIC Alone, S. maltophilia 9) | MIC (bacterial isolates; [18]) | MIC (bacterial isolates; Stenotrophomonas maltophilia, read-out: Piperacillin MIC Alone, S. maltophilia 13)
> 256 µg/mL: MIC [1, 21] | MIC (bacterial isolates; [21])
512 µg/mL: MIC (bacterial isolates; Pseudomonas aeruginosa, read-out: Piperacillin MIC Alone, P. aeruginosa 29)
4 µg/mL: Piperacillin MIC + Peptide ([2]; S. aureus MRSA, peptide MBI 11F3CN) | MIC ([2]; read-out: Piperacillin MIC + Peptide, S. aureus MRSA, peptide MBI 11F4CN) | MIC ([2]; read-out: Piperacillin MIC + Peptide, S. aureus MRSA, peptide MBI 29)
2 µg/mL: MIC ([2]; read-out: Piperacillin MIC + Peptide, S. aureus MRSA, peptide MBI 11D18CN) | MIC ([2]; read-out: Piperacillin MIC + Peptide, S. aureus MRSA, peptide MBI 11E3CN) | MIC ([2]; read-out: Piperacillin MIC + Peptide, S. aureus MRSA, peptide MBI 11F3CN)
0.5 µg/mL: MIC (bacterial isolates; Haemophilus influenzae, read-out: Piperacillin MIC Alone, H. influenzae 3) | MIC (bacterial isolates; Haemophilus influenzae, read-out: Piperacillin MIC Alone, H. influenzae SB1) | MIC ([2]; read-out: Piperacillin MIC + Peptide, S. aureus MRSA, peptide MBI 11B7CN) | MIC ([2]; read-out: Piperacillin MIC + Peptide, S. aureus MRSA, peptide MBI 11G7CN) | MIC ([2]; read-out: Piperacillin MIC + Peptide, S. aureus MRSA, peptide MBI 21A2) | MIC ([2]; read-out: Piperacillin MIC + Peptide, S. aureus MRSA, peptide MBI 26)
>128 µg/mL and 256 µg/mL: Piperacillin MIC Alone ([1]; P. aeruginosa 23)
16 µg/mL: MIC comb. (antibiotic agent) ([1]; S. maltophilia, with MBI 26)
> 512 µg/mL: MIC [1, 3] | MIC [1, 8] | MIC [1, 9] | MIC ([1]; Pseudomonas aeruginosa, read-out: Piperacillin MIC Alone, P. aeruginosa 24) | MIC ([1]; Stenotrophomonas maltophilia, read-out: MIC alone (antibiotic agent), S. maltophilia) | MIC [1, 20] | MIC ([1]; Stenotrophomonas maltophilia, read-out: Piperacillin MIC Alone, S. maltophilia 41) | MIC (bacterial isolates; [3]) | MIC (bacterial isolates; [8]) | MIC (bacterial isolates; [9]) | MIC (bacterial isolates; Pseudomonas aeruginosa, read-out: Piperacillin MIC Alone, P. aeruginosa 28) | MIC (bacterial isolates; [20]) | MIC (bacterial isolates; Stenotrophomonas maltophilia, read-out: Piperacillin MIC Alone, S. maltophilia 38) | MIC (bacterial isolates; Stenotrophomonas maltophilia, read-out: Piperacillin MIC Alone, S. maltophilia 40) | MIC (bacterial isolates; Stenotrophomonas maltophilia, read-out: Piperacillin MIC Alone, S. maltophilia 42)
>512 µg/mL: Piperacillin MIC Alone ([1]; S. maltophilia 35)
32 µg/mL: MIC [1, 4] | Piperacillin MIC Alone ([1]; H. influenzae 1) | MIC [1, 16] | MIC [1, 18] | MIC (bacterial isolates; [4]) | Piperacillin MIC Alone (bacterial isolates; H. influenzae 1) | Piperacillin MIC Alone (bacterial isolates; P. aeruginosa 41)
>128 µg/mL: Piperacillin MIC Alone ([1]; P. aeruginosa 7) | Piperacillin MIC Alone (bacterial isolates; S. aureus 19 MRSA)
128 µg/mL: MIC [1, 7] | MIC ([1]; Pseudomonas aeruginosa, read-out: MIC alone (antibiotic agent), P. aeruginosa) | MIC [1, 12] | MIC ([1]; Pseudomonas aeruginosa, read-out: Piperacillin MIC Alone, P. aeruginosa 23) | MIC ([1]; Pseudomonas aeruginosa, read-out: Piperacillin MIC Alone, P. aeruginosa 26) | Piperacillin MIC Alone ([1]; S. maltophilia 4) | MIC ([1]; Staphylococcus aureus, read-out: MIC alone (antibiotic agent), S. aureus) | MIC [1, 19] | Piperacillin MIC Alone (bacterial isolates; A. calcoaceticus 3) | MIC (bacterial isolates; [7]) | Piperacillin MIC Alone (bacterial isolates; P. aeruginosa 7) | Piperacillin MIC Alone (bacterial isolates; S. aureus SB3MRSA) | MIC (bacterial isolates; Staphylococcus aureus, MRSA, read-out: Piperacillin MIC Alone, S. aureus 19 MRSA) | MIC (bacterial isolates; Staphylococcus aureus, read-out: Piperacillin MIC Alone, S. aureus SB2MRSA) | MIC (bacterial isolates; [17]) | MIC (bacterial isolates; [19]) | MIC ([2]; read-out: Piperacillin MIC Alone, S. aureus MRSA)
64 µg/mL: MIC ([1]; Enterobacter cloacae, read-out: Piperacillin MIC Alone, E. cloacae 19) | MIC [1, 11] | MIC comb. (antibiotic agent) ([1]; P. aeruginosa, with MBI 27) | MIC comb. (antibiotic agent) ([1]; P. aeruginosa, with MBI 29) | MIC comb. (antibiotic agent) ([1]; S. aureus, with MBI 27) | Piperacillin MIC Alone ([1]; S. maltophilia 2) | MIC [1, 15] | MIC [1, 17] | MIC ([1]; Stenotrophomonas maltophilia, read-out: Piperacillin MIC Alone, S. maltophilia 4) | MIC (bacterial isolates; Acinetobacter calcoaceticus, read-out: Piperacillin MIC Alone, A. calcoaceticus 3) | MIC (bacterial isolates; Acinetobacter calcoaceticus, read-out: Piperacillin MIC Alone, A. calcoaceticus 8) | MIC (bacterial isolates; [11]) | MIC (bacterial isolates; Pseudomonas aeruginosa, read-out: Piperacillin MIC Alone, P. aeruginosa 32) | MIC (bacterial isolates; Pseudomonas aeruginosa, read-out: Piperacillin MIC Alone, P. aeruginosa 41) | MIC (bacterial isolates; [15]) | MIC (bacterial isolates; [16])

Gentamicin
8 µg/mL and 16 µg/mL: Gentamicin MIC Alone ([1]; P. aeruginosa PA023) | Gentamicin MIC Alone ([1]; P. aeruginosa PA041) | Gentamicin MIC Alone (bacterial isolates; P. aeruginosa PA041)
>128 µg/mL: Gentamicin MIC Alone (bacterial isolates; E. faecium EFM004)
1 µg/mL: Gentamicin MIC + Peptide ([2]; S. aureus MRSA, peptide MBI 11B16CN)
>128 µg/mL and 128 µg/mL: Gentamicin MIC Alone (bacterial isolates; E. faecalis EFS008) | Gentamicin MIC Alone (bacterial isolates; S. maltophilia SMA016)
32 µg/mL and 16 µg/mL: Gentamicin MIC Alone (bacterial isolates; P. aeruginosa PA022)
32 µg/mL: Gentamicin MIC Alone ([1]; P. aeruginosa PA022) | Gentamicin MIC Alone (bacterial isolates; S. aureus SA014 MRSA) | Gentamicin MIC Alone ([2]; S. aureus MRSA)
16 µg/mL: Gentamicin MIC Alone (bacterial isolates; S. epidermidis SE071)
128 µg/mL: Gentamicin MIC Alone (bacterial isolates; S. epidermidis SE074) | Gentamicin MIC Alone (bacterial isolates; S. maltophilia (strain line r400 not shown)) | Gentamicin MIC Alone (bacterial isolates; S. maltophilia SMA017)
8 µg/mL: Gentamicin MIC Alone ([1]; A. calcoaceticus AC001) | Gentamicin MIC Alone (bacterial isolates; A. calcoaceticus AC001) | Gentamicin MIC Alone (bacterial isolates; P. aeruginosa PA023)
16 µg/mL and 32 µg/mL: Gentamicin MIC Alone ([1]; A. baumannii ABI002)

KKWWRRALQALKNGLPALIS [MBI 22A1]
4 µg/mL: Tobramycin MIC + Peptide ([1]; A. baumannii ABI001) | Peptide MIC Alone ([1]; A. baumannii ABI001) | Tobramycin MIC + Peptide (bacterial isolates; S. aureus SA014 MRSA)
0.51 and 0.50: FIC ([1]; S. maltophilia SMA029)
0.56: FIC (bacterial isolates; S. epidermidis SE080)
1 µg/mL: Tobramycin MIC + Peptide (bacterial isolates; S. maltophilia SMA030)
0.27: FIC (bacterial isolates; S. aureus SA014 MRSA) | FIC ([2]; peptide + Tobramycin, S. aureus)
0.26: FIC (bacterial isolates; S. maltophilia SMA030)
16 µg/mL: Peptide MIC Alone ([1]; S. epidermidis SE072) | Peptide MIC Alone ([1]; S. epidermidis SE073) | Peptide MIC Alone (bacterial isolates; S. epidermidis SE072) | Peptide MIC Alone (bacterial isolates; S. epidermidis SE073) | Tobramycin MIC + Peptide (bacterial isolates; S. epidermidis SE080)
0.25: FIC (bacterial isolates; [22])
0.50: FIC ([1]; S. epidermidis SE072) | FIC ([1]; S. epidermidis SE073) | FIC (bacterial isolates; S. epidermidis SE072) | FIC (bacterial isolates; S. epidermidis SE073)
8 µg/mL and 16 µg/mL: Peptide MIC + Tobramycin ([1]; S. maltophilia SMA029)
16 µg/mL and 32 µg/mL: Peptide MIC Alone ([1]; S. maltophilia SMA029)
32 µg/mL: Peptide MIC Alone (bacterial isolates; S. maltophilia (strain code stands in r800, not shown), Tobramycin section) | Peptide MIC Alone (bacterial isolates; S. maltophilia SMA030, Tobramycin section)
8 µg/mL: Peptide MIC + Tobramycin ([1]; S. epidermidis SE072) | Peptide MIC + Tobramycin ([1]; S. epidermidis SE073) | Peptide MIC Alone (bacterial isolates; S. aureus SA014 MRSA) | Peptide MIC + Tobramycin (bacterial isolates; S. epidermidis SE072) | Peptide MIC + Tobramycin (bacterial isolates; S. epidermidis SE073) | Peptide MIC + Tobramycin (bacterial isolates; [22]) | Peptide MIC + Tobramycin (bacterial isolates; S. maltophilia SMA030) | Peptide MIC Alone ([2]; S. aureus, Tobramycin section)
2 µg/mL: Peptide MIC + Tobramycin ([1]; A. baumannii ABI001) | Peptide MIC + Tobramycin (bacterial isolates; S. aureus SA014 MRSA) | Peptide MIC Alone (bacterial isolates; S. epidermidis SE080) | Peptide MIC + Tobramycin ([2]; S. aureus)
0.75: FIC ([1]; A. baumannii ABI001)
0.125 µg/mL: Tobramycin MIC + Peptide ([1]; S. epidermidis SE072) | Tobramycin MIC + Peptide ([1]; S. epidermidis SE073) | Tobramycin MIC + Peptide (bacterial isolates; S. epidermidis SE072) | Tobramycin MIC + Peptide (bacterial isolates; S. epidermidis SE073) | Peptide MIC + Tobramycin (bacterial isolates; S. epidermidis SE080)
0.5 µg/mL: Tobramycin MIC + Peptide (bacterial isolates; [22])
